The test system of experiment [1] is LPS-stimulated BV-2 cells. Kind of experiment: Griess assay (nitric oxide release) from LPS-activated BV-2 microglia. Type of experiment: cell-based, mouse. The conditions noted are these: vitamin D 1 μg/ml, DHA 20 μM; for NO release as percentage of the NO released by cells stimulated only with LPS: Example 1, high non-toxic concentrations: vitamin A 1.75 μM, EPA 20 μM, 24 h pretreatment, then 24 h with LPS 50 ng/ml plus same nutrients, LPS control = 100%; for effect on LPS-induced NO release (in words): Example 1 concentrations: vitamin B6 29 μM, folic acid 24 μM, vitamin B12 0.2 μM, vitamin A 1.75 μM, versus LPS control. An excerpt:
(§1) BV-2 cell cultures: BV-2 cells were obtained from IRCCS (Azienda Ospedaliera Universitaria San Martino—IST Istituto Nazionale per la Ricerca sul Cancro, Genova, Italy). BV-2 cell lines are immortalized cell lines derived from C57bl/6 mouse. These are considered to closely resemble the physiology of primary microglia cells and form a well-established model for investigation in vitro (Henn et al., ALTEX, 2009, 26, 83-94). Lipopolysaccharide (LPS), an endotoxin derived from the cell wall of gram negative bacteria, is the most widely used agent to activate immune cells. Cells were cultured in Dulbecco's Modified Eagle Medium (DMEM, Gibco) supplemented with 10% of heat-inactivated fetal bovine serum (Invitrogen), 10,000 units/ml penicillin (Gibco), 10,000 μg/ml streptomycin (Gibco) and 200 mM L-glutamine (Gibco) and maintained at 37° C. and 5% CO2. Twenty-four hours before the experiment, cells were plated on 96 well plates (Corning) at a cell density of approximately 20,000 cells/well and maintained in DMEM supplemented with 2% fetal bovine serum, 10,000 units/ml penicillin, 10,000 μg/ml streptomycin and 200 mM L-glutamine, for the duration of the experiment.
(§2) Cell viability: Cell proliferation and viability were assessed with 2,3-bis(2-methoxy-4-nitro-5-sulfophenyl)-2H-tetrazolium-5-carboxanilide inner salt (XTT, Sigma) at a concentration of 1 mg/ml. Phenazine methosulfate (PMS, Sigma) at a concentration of 200 mg/ml was added as an electron coupling reagent. The XTT/PMS solution in sterile water (100 μl) was added to each well. After 2 h, the absorbance was measured at 450 nm (and 690 nm as a reference). The absorbance was corrected for the number of cells. The viability test was repeated for each experiment as a within plate control.
Griess assay (nitric oxide release): Cells were treated for 24 h with different combinations of nutrients. This treatment was followed by exchanging the medium for fresh medium with LPS (50 ng/ml) combined with the same nutrients. After incubation for 24 h, media were collected for measurement of NO release. The stable product of NO released by the BV-2 cells is NO2^−. The concentration of NO2^− was measured with a Griess assay Kit (Promega) according to the manufacturer's instructions. Data were corrected for cell viability (the viability of untreated control cells represented 100% of viability). Data are represented as percentage of the NO released by cells stimulated only with LPS. To assess variability between the tests, data from the treatment with LPS alone were pooled and an average release between experiments was calculated for NO. For treatment with LPS alone, the NO release is represented as the percentage of the average release between experiments.
(§3) Statistical analysis: All experiments were performed at least in triplicate. The data are presented as dots representing means and bars representing standard error mean (SEM). Due to the small sample size, non-parametric statistical tests were used. Data were analyzed with the Kruskal-Wallis H test and if the statistical significance was reached, Mann Whithey U test with Bonferroni-Holm post-hoc correction to allow multiple comparisons was performed. A difference was considered statistically significant when the probability (p) was <0.05.
(§4) BV-2 cells were pretreated for 24 h with different nutrients: (I) vitamin A (1.75 μM); (II) vitamin D (1 μg/ml); (III) DHA (20 μM); (IV) EPA (20 μM); (V) vitamin B6 (29 μM, including 19 μM already present in the culture medium); (VI) folic acid (24 μM, including 9 μM already present in the culture medium); (VII) vitamin B12 (0.2 μM). This was followed by 24 h incubation with LPS (50 ng/ml) combined with the same nutrients. Media were collected for measurement of NO release with the Griess assay (FIG. 1A) and IL-6 release with ELISA (FIG. 1B). NO and IL-6 levels are presented as the percentage of the concentration produced by cells treated with LPS alone (LPS control, dashed line).
For orientation: Griess reagent forms a coloured azo dye with nitrite.

Experiment [2] concerns LPS-stimulated BV-2 cells. In words: ELISA (IL-6) release from LPS-activated BV-2 microglia. Type of experiment: cell-based, mouse. The conditions noted are these: vitamin D 1 μg/ml, DHA 20 μM; for IL-6 release as percentage of the IL-6 released by cells stimulated only with LPS: Example 1, high non-toxic concentrations: vitamin A 1.75 μM, EPA 20 μM, 24 h pretreatment, then 24 h with LPS 50 ng/ml plus same nutrients, LPS control = 100%; for effect on LPS-induced IL-6 release (in words): Example 1 concentrations: vitamin B6 29 μM, folic acid 24 μM, vitamin B12 0.2 μM, vitamin A 1.75 μM, versus LPS control.
Source text: as §1, §2
ELISA (IL-6): Cells were treated for 24 h with different combinations of nutrients. Subsequently, the medium was removed and cells were incubated for 24 h in fresh medium with LPS (50 ng/ml) combined with the same nutrients. Media were collected for measurement of IL-6 release. Collected samples were stored at −80° C. until further analysis. The cytokine levels were assessed using ELISA MAX™ Deluxe from Biolegend according to the manufacturer's protocol. Data were corrected for cell viability. Data are represented as percentage of the IL-6 released by cells stimulated only with LPS. To assess variability between the tests, data from the treatment with LPS alone were pooled and an average release between experiments was calculated for IL-6. For LPS alone treatment the IL-6 release is represented as the percentage of the average release between experiments.
as §3
as §4, with “line). All graphs represent the results from 4 independent experiments (mean±SEM).” for “line).”

`CC/C=C\C/C=C\C/C=C\C/C=C\C/C=C\C/C=C\CCC(=O)O` [DHA, cis-4,7,10,13,16,19-docosahexaenoic acid]: the “NO release as percentage of the NO released by cells stimulated only with LPS” value (“NO release as percentage” below) in experiment [1] was found to be 68%. Further, in experiment [2], the “IL-6 release as percentage of the IL-6 released by cells stimulated only with LPS” value (“IL-6 release as percentage” below) is recorded as 68%.
For `CC/C=C\C/C=C\C/C=C\C/C=C\C/C=C\CCCC(=O)O` [EPA, cis-5,8,11,14,17-eicosapentaenoic acid], the “NO release as percentage” value in experiment [1] is 80%. The “IL-6 release as percentage” value in experiment [2] is listed as 70%.
Turning to `N[C@@H](CS)C(=O)O` [L-cysteine], the “effect on LPS-induced NO release (in words)” value in experiment [1] was “did not cause any significant effect”. In addition, the “effect on LPS-induced IL-6 release (in words)” value in experiment [2] was “did not cause any significant effects”.
Consider `N[C@@H](Cc1c[nH]c2ccccc12)C(=O)O` [L-tryptophan], for which the “effect on LPS-induced NO release (in words)” value in experiment [1] is recorded as “did not cause any significant effect”. Further, the “effect on LPS-induced IL-6 release (in words)” value in experiment [2] is given as “did not cause any significant effects”.
In the case of `Cc1ncc(CO)c(CO)c1O.Cl` [Vitamin B6, vitamin B6], in experiment [1], the “effect on LPS-induced NO release (in words)” value is recorded as “did not cause any significant effect”. Also, the “effect on LPS-induced IL-6 release (in words)” value in experiment [2] was “did not cause any significant effects”.
On to `Nc1nc2ncc(CNc3ccc(C(=O)N[C@@H](CCC(=O)O)C(=O)O)cc3)nc2c(=O)[nH]1` [Vitamin B9, folic acid], for which the “effect on LPS-induced NO release (in words)” value in experiment [1] is on record as “did not cause any significant effect”. For the same compound, the “effect on LPS-induced IL-6 release (in words)” value in experiment [2] was “did not cause any significant effects”.
Regarding `C=C1CC[C@H](O)C/C1=C/C=C1\CCC[C@]2(C)[C@@H]([C@H](C)CCCC(C)C)CC[C@@H]12` [Vitamin D, vitamin D3], the “NO release as percentage” value in experiment [1] was 43%. For the same compound, in experiment [2], the “IL-6 release as percentage” value is 43%.
vitamin A: in experiment [1], the “NO release as percentage” value stood at 39%. The “IL-6 release as percentage” value in experiment [2] is 42%.
Regarding vitamin B12, the “effect on LPS-induced NO release (in words)” value in experiment [1] was “did not cause any significant effect”. For the same compound, in experiment [2], the “effect on LPS-induced IL-6 release (in words)” value is given as “did not cause any significant effects”.

For the origin of these results see US10821120B2, “Method for controlling neuroinflammation” (N.V. NUTRICIA, priority 2016, dated 2020).
